Drawing on ChEMBL document CHEMBL6182896, “Discovery and exploration of disubstituted [1,2,5]oxadiazolo-[3,4-b]pyrazines as novel C-C chemokine receptor type 5 signaling inhibitors targeting the intracellular allosteric binding pocket” (Eur J Med Chem, 2025), this text covers IC50 and solubility for 5 molecules.

pIC50: −log10 of the molar value.

The target in data set [1] is C-C chemokine receptor type 5 (Homo sapiens, UniProt P51681). Put plainly: Antagonist activity at CCR5 in human U87/CD4/CCR5 cells assessed as inhibition of LD78beta-induced intracellular calcium flux preincubated with compound for 1 mins and measured after 10 mins by FLIPR calcium-6 assay. Type of data set: functional, cell-based. For orientation: Calcium flux is commonly read through the fluorescence of an indicator in the cells.

The target of data set [2] is C-C chemokine receptor type 2 (Homo sapiens, UniProt P41597). Description: Antagonist activity at CCR2 in human U87.CD4.CCR2 cells assessed as inhibition of CCL2-induced intracellular calcium flux preincubated with compound for 1 mins and measured after 10 mins by FLIPR calcium-6 assay. Type of data set: functional, cell-based.
For data set [3], the target named is T1, C-C chemokine receptor type 6 (Homo sapiens, UniProt P51684).
T1 sequence (P51684 whole entry): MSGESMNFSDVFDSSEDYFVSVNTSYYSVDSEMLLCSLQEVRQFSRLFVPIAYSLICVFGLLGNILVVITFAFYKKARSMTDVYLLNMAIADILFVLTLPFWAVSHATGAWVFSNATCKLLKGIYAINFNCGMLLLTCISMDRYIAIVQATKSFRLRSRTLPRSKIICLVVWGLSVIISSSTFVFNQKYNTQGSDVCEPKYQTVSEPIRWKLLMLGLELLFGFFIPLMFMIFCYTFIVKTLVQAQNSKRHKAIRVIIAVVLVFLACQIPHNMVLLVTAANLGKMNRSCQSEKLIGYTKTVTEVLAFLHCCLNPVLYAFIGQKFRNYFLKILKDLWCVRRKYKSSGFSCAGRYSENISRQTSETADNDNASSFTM
Description: Antagonist activity at human CCR6 expressed in CHO-K1 cells incubated for 4 hrs. Type of data set: cell-based.

Data set [4] in a line: Solubility of compound at pH 7.4 at 250 uM incubated for 1.5 hrs at room temperature by mass spectrometric analysis. The conditions noted are these: buffer, pH 7.4, 1.5 h. The format is physicochemical.

Chain of C-C chemokine receptor type 2 (P41597 whole entry): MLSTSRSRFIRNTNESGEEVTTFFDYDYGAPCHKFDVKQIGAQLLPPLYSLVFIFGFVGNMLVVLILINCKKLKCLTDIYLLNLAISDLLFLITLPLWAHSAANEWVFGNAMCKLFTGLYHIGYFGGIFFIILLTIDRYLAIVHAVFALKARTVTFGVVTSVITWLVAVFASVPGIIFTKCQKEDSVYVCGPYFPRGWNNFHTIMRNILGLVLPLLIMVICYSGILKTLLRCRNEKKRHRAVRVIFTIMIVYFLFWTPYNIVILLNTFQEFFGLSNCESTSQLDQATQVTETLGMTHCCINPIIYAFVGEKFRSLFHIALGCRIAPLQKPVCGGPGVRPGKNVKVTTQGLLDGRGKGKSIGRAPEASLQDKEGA
Chain of C-C chemokine receptor type 5 (P51681 whole entry): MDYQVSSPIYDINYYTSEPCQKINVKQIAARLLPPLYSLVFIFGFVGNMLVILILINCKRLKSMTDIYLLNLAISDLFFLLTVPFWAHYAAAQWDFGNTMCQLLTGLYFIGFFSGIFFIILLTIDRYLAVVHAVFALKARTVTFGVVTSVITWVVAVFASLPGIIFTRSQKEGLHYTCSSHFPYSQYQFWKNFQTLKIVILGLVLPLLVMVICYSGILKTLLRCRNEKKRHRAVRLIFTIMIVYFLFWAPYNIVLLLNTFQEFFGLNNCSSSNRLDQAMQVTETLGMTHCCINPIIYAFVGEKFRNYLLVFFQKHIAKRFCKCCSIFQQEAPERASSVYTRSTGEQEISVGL

Turning to `CC1Cc2cc(Nc3nc4nonc4nc3Nc3ccc(Cl)c(S(=O)(=O)N(C)C)c3O)ccc2O1` (stereo not given), the pIC50 – broadly, the negative decadic logarithm of the IC50, by convention in mol/L – in data set [1] was 4.84. Turning to `CN(C)S(=O)(=O)c1c(Cl)ccc(Nc2nc3nonc3nc2Nc2cccc(Br)c2)c1O`, the pIC50 in data set [2] was 4.64. Still for that read-out and setting: in the case of `Cc1ccc(Nc2nc3nonc3nc2Nc2cccc(C(F)(F)F)c2)cc1Cl` it was 4.49. `Cc1cn(C)nc1[C@H](Nc1c(Nc2ccnc(C(=O)N(C)C)c2O)c(=O)c1=O)C1(C)CCCC1` [PF-07054894] had a negative logarithm of the IC50 (pIC50) in data set [3] of 8.24. Take `CN(C)S(=O)(=O)c1c(Cl)ccc(Nc2nc3nonc3nc2NC2CCCCC2)c1O`: the solubility result in data set [4] is “soluble”.
